Key:
[1] = tested on: CTG repeat expansion in the 3′ UTR of human DMPK gene; assay: DOUBLE-cut screening: CTG repeat excision by loss-of-signal ddPCR in primary DM1 patient myoblasts; type: cell-based; details: sgRNA pair RNP, mean of upstream and downstream ddPCR assays; for % of CTG repeat excision efficiency by ddPCR (DNA-PKi): 3 μM Compound 6 for 48 hrs; for % of CTG repeat excision efficiency by ddPCR (Vehicle): DMSO 48 hrs
Description: (§1) RNPs were assembled with recombinant SaCas9 protein (Aldevron) and chemically modified sgRNAs (Synthego) at a ratio of 1:3 (protein:sgRNA). For SINGLE-cut screening, RNP complexes were assembled with 30 pmol of SaCas9 and 90 pmol of sgRNA in P5 Primary Cell Nucleofector Solution (Lonza). After incubation at room temperature for 20 minutes, 10 μL of RNP complex was mixed with two hundred thousand primary myoblasts resuspended in 10 μL of P5 Nucleofector Solution. For DOUBLE-cut screening, RNP complexes were first assembled for individual sgRNAs with 20 pmol of SaCas9 protein and 60 pmol of sgRNAs in 5 μL of P5 Nucleofector Solution. After incubation at room temperature for 20 minutes, the two RNP complexes (one for upstream sgRNA and one for downstream sgRNA) were mixed at 1:1 ratio and then further mixed with two hundred thousand primary myoblasts resuspended in 10 μL of P5 Nucleofector Solution.
(§2) The Nucleofector 96-well Shuttle System (Lonza) was used to deliver the SaCa9/sgRNA RNPs into primary DM1 patient myoblasts using the nucleofection program CM138. Following nucleofection, myoblasts from each well of nucleofection shuttle were split into six wells of the 96-well cell culture plate (Greiner, 655090) coated with matrigel. The first three wells were treated with DMSO for 48 hrs before changing to fresh myoblast growth medium, and the other three wells were treated with 3 μM of DNA-PKi Compound 6 for 48 hrs before changing to fresh myoblast growth medium. 72 hrs post nucleofection, two wells of DMSO-treated myoblasts and two wells of DNA-PKi-treated myoblasts from each nucleofection were harvested for genomic DNA extraction using the Kingfisher Flex purification system (Thermal Fisher), whereas one well of DMSO-treated myoblasts and one well of DNA-PKi-treated myoblasts were stained for RNA foci by FISH staining.
The primers and probes of ddPCR were designed using the online primer design software Primer3Plus (http://www.bioinformatics.nl/cgi-bin/primer3plus/primer3plus.cgi). The two Target primers/probe sets were used to detect CTG repeat excision, and the Reference primers/probe set was used to amplify a region located in Exon 1 of human DMPK gene and it served as a reference control for the Target sets. The 24 μL of ddPCR reaction consisted of 12 μL of Supermix for Probes (no dUTP) (Bio-Rad Laboratories), 1 μL of Reference primers mix (21.6 μM), 1 μL of Reference probe (6 μM), 1 μL of Target primers mix (21.6 μM), 1 μL of Target probe (6 μM), and 8 μL of sample genomic DNA. Droplets were generated using probe oil with the QX200 Droplet Generator (Bio-Rad Laboratories). Droplets were transferred to a 96-well PCR plate, sealed and cycled in a C1000 deep well Thermocycler (Bio-Rad Laboratories) under the following cycling protocol: 1 cycle at 95° C. for 10 min; 40 cycles of 94° C. for 30 sec, and 58° C. for 1 min; 1 cycle at 98° C. for 10 min (for enzyme inactivation). The cycled plate was then transferred and read in the FAM and HEX channels using the Bio-Rad QX200 Droplet Reader (Bio-Rad Laboratories). ddPCR analysis was performed with the Bio-Rad QuantaSoft Pro Software.
Next, DOUBLE-cut screening was performed to assess the efficiency of paired sgRNAs-induced CTG repeat excision and RNA foci reduction. 90 SaCas9 sgRNA pairs formed by one upstream sgRNA and one downstream sgRNA were assembled with recombinant SaCas9 protein into RNP complex and nucleofected into primary DM1 patient myoblasts. Nucleofected myoblasts were treated with either DMSO (vehicle) or 3 μM of Compound 6 (DNA-PKi) for 48 hrs. 72 hrs post nucleofection, myoblasts were subjected to either genomic DNA isolation or RNA foci staining.
One upstream and one downstream loss-of-signal droplet digital PCR (ddPCR) assays were used to determine the efficiency of CTG repeat excision. ddPCR signals would be abolished upon excision of the CTG repeat expansion in these loss-of-signal ddPCR assays. […]

[2] = tested on: CUG RNA foci in primary DM1 patient myoblasts; assay: DOUBLE-cut screening: FISH staining of RNA foci in primary DM1 patient myoblasts; type: cell-based, human; details: sgRNA pair RNP, 72 hrs post nucleofection; for % of CUG foci free nuclei (DNA-PKi): 3 μM Compound 6 for 48 hrs; for % of CUG foci free nuclei (Vehicle): DMSO 48 hrs
Description: as §1, §2
Primary myoblasts were fixed for 15 min with 4% paraformaldehyde (PFA) and washed five times with 1×PBS for 10 min each at room temperature. Before staining, cells were permeabilized with 0.5% triton X-100 in 1×PBS for 5 min at room temperature, and then washed with 30% formamide and 2× saline-sodium citrate (SSC) mixture for 10 min at room temperature. Cells were then stained with 1 ng/μL of Cy3-PNA(CAG) 5 probe (PNA Bio, F5001) diluted in 30% formamide, 2×SSC, 2 μg/mL BSA, 66 μg/mL yeast tRNA, and 2 mM vanadyl complex for 15 min at 80° C. Following probe staining, cells were then washed in 30% formamide and 2×SSC mixture for 30 min at 42° C., then washed in 30% formamide and 2×SSC mixture for 30 min at 37° C., and then washed in 1×SSC solution for 10 min at room temperature, and finally washed in 1×PBS for 10 min at room temperature. Cells were next stained with anti-MBNL1 antibody (Santa Cruz, 3A4) diluted in 1% bovine serum albumin (BSA) for overnight at 4° C., and washed twice with 1×PBS for 10 min each at room temperature. Cells were then incubated with the secondary antibody goat […] Alexa 647 (Thermo Fisher, A32728) diluted in 1% BSA for 1 hr at room temperature, and washed twice with 1×PBS for 10 min each at room temperature. Next, cells were stained with Hoechst solution (Thermo Fisher, H3569) at 0.1 mg/ml for 5 min, and washed once with 1×PBS for 5 min. PBS was aspirated and fresh 100 μl of fresh PBS was added to each well. High-throughput acquisition of images was completed with the ImageXpress Micro Confocal High-Content Imaging System (Molecular Devices). RNA foci quantifications were accomplished with a customized analysis module of the MetaXpress program (Molecular Devices).
Next, DOUBLE-cut screening was performed to assess the efficiency of paired sgRNAs-induced CTG repeat excision and RNA foci reduction. 90 SaCas9 sgRNA pairs formed by one upstream sgRNA and one downstream sgRNA were assembled with recombinant SaCas9 protein into RNP complex and nucleofected into primary DM1 patient myoblasts. […]

Substance	% of CTG repeat excision efficiency by ddPCR (DNA-PKi) [1]	% of CTG repeat excision efficiency by ddPCR (Vehicle) [1]	% of CUG foci free nuclei (DNA-PKi) [2]	% of CUG foci free nuclei (Vehicle) [2]
SaU8 + SaD5: SaCas9 sgRNA pair, SEQ ID NOs: 8 and 13 (guide 1 GGCTCGAAGGGTCCTTGTAGCC; guide 2 GGGTTTGGCAAAAGCAAATTTC; listed as DNA, chemistry not fully specified)	58.77%	49.47%	84.28%	72.77%
SaU1 + SaD17: SaCas9 sgRNA pair, SEQ ID NOs: 1 and 25 (guide 1 GCCCCGGAGTCGAAGACAGTTC; guide 2 TTTATTCGCGAGGGTCGGGGGT; listed as DNA, chemistry not fully specified)	53.66%	26.29%	75.32%	45.51%
SaU7 +SaD3: SaCas9 sgRNA pair, SEQ ID NOs: 7 and 11 (guide 1 CGCGGCCGGCGAACGGGGCTCG; guide 2 CAACGATAGGTGGGGGTGCGTG; listed as DNA, chemistry not fully specified)	61.82%	41.26%	80.45%	39.24%
SaU7 + SaD19: SaCas9 sgRNA pair, SEQ ID NOs: 7 and 27 (guide 1 CGCGGCCGGCGAACGGGGCTCG; guide 2 AGGACCCCCACCCCCGACCCTC; listed as DNA, chemistry not fully specified)	56.22%	28.45%	81.47%	42.75%
SaU8 +SaD10: SaCas9 sgRNA pair, SEQ ID NOs: 8 and 18 (guide 1 GGCTCGAAGGGTCCTTGTAGCC; guide 2 TTGGGGGTCCTGTAGCCTGTCA; listed as DNA, chemistry not fully specified)	69.07%	48.45%	82.92%	74.46%
SaU1 + SaD10: SaCas9 sgRNA pair, SEQ ID NOs: 1 and 18 (guide 1 GCCCCGGAGTCGAAGACAGTTC; guide 2 TTGGGGGTCCTGTAGCCTGTCA; listed as DNA, chemistry not fully specified)	61.44%	37.72%	84.12%	75.91%
SaU2 + SaD7: SaCas9 sgRNA pair, SEQ ID NOs: 2 and 15 (guide 1 ACTCAGTCTTCCAACGGGGCCC; guide 2 GGGGCGCGGGATCCCCGAAAAA; listed as DNA, chemistry not fully specified)	52.12%	29.62%	76.74%	49.05%
SaU8 +SaD11: SaCas9 sgRNA pair, SEQ ID NOs: 8 and 19 (guide 1 GGCTCGAAGGGTCCTTGTAGCC; guide 2 CAAAACGTGGATTGGGGTTGTT; listed as DNA, chemistry not fully specified)	47.57%	31.52%	70.97%	44.65%
SaU2 + SaD3: SaCas9 sgRNA pair, SEQ ID NOs: 2 and 11 (guide 1 ACTCAGTCTTCCAACGGGGCCC; guide 2 CAACGATAGGTGGGGGTGCGTG; listed as DNA, chemistry not fully specified)	56.04%	36.75%	80.14%	55.11%

From patent US20240181081A1, “Compositions and Methods for Treatment of Myotonic Dystrophy Type 1 with CRISPR/SACAS9” (Vertex Pharmaceuticals Incorporated, priority 2021, published 2024)
